According to US20260116920A1, “HUMAN TRANSFERRIN RECEPTOR BINDING PEPTIDE” (PEPTIDREAM INC., priority 2021, published 2026):
Like-named read-outs stand apart in the source and are kept apart here. Starred links: 1 amine or outer side, 2 acyl side, 3 side chain; linkers in the order of their positions; H or OH if unused. Positions of bridges follow the written chain, without caps; N, C: chain ends. Non-standard residues stand in square brackets, D forms with d. Residues, ends and D or L forms follow the SMILES beside them. *: point of attachment. E(PEG8Me) = (S)-30-amino-27-oxo-2,5,8,11,14,17,20,23-octaoxa-26-azahentriacontane-31-oic acid, COCCOCCOCCOCCOCCOCCOCCOCCNC(=O)CC[C@H](N[*:1])C(=O)[*:2]; F4aao = (S)-2-amino-3-(4-(carboxymethoxy)phenyl)propanoic acid, O=C([C@H](Cc1ccc(OCC(=O)[*:3])cc1)N[*:1])[*:2]; Trp(1-CH2CO) = O=C([C@H](Cc1cn(CC(=O)[*:3])c2ccccc12)N[*:1])[*:2]; Trp(1-CH2COOH) = N[C@@H](Cc1cn(CC(=O)O)c2ccccc12)C(=O)O; Phe(3-COOH) = N[C@@H](Cc1cccc(C(=O)O)c1)C(=O)O; NH(CH2CH2O)8Me = COCCOCCOCCOCCOCCOCCOCCOCCN*; NMePhe(3-Cl) = CN[C@@H](Cc1cccc(Cl)c1)C(=O)O; 3Pal(6-NH2) = Nc1ccc(C[C@H](N)C(=O)O)cn1; Lys(N3) = [N-]=[N+]=NCCCC[C@H](N)C(=O)O; NMeY = CN[C@@H](Cc1ccc(O)cc1)C(=O)O; 3Pal = N[C@@H](Cc1cccnc1)C(=O)O; 4Pal = N[C@@H](Cc1ccncc1)C(=O)O; PEG4 = NCCOCCOCCOCCOCCC(=O)O; Carboxymethyl = O=C(O)C*

Biological target: T1, human transferrin receptor (hTfR) (Homo sapiens, UniProt P02786)
T1 construct: made in house
Assay: Evaluation of molecular interaction between transferrin receptor (hTfR) and peptide using surface plasmon resonance (SPR)
Assay type: binding
How it was run: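 KD values are derived by least-squares fitting of single-cycle kinetic sensorgrams. Peptide series (5–100 nM) flows over recombinant hTfR dimer immobilized on a Ni-NTA chip by EDC/NHS coupling, in pH 8.0 HEPES buffer containing 0.1% BSA and 1.0% DMSO.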

[1] = surface plasmon resonance, binding to hTfR, KD class symbol, read-out: SPR (KD value)

T1 sequence (P02786 89-760 limits assumed): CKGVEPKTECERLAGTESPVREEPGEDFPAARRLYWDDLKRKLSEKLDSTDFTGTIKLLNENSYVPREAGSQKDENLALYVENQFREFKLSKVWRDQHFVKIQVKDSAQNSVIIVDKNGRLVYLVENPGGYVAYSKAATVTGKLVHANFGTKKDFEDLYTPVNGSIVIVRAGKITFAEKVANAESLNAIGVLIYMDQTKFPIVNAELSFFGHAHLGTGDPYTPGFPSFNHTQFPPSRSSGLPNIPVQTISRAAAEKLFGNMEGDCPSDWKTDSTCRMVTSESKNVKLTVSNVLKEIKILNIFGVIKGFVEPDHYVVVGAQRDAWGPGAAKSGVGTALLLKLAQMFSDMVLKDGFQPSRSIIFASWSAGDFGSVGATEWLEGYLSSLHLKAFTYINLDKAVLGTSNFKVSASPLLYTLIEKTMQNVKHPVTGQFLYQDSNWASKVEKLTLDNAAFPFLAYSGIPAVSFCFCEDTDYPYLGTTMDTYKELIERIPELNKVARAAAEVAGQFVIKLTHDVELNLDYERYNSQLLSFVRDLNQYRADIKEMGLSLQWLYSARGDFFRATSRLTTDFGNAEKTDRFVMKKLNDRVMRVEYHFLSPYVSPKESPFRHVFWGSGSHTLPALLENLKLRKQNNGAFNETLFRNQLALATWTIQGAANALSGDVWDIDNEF

`CC[C@H](C)[C@@H]1NC(=O)[C@H](Cc2ccc(OC)cc2)NC(=O)[C@H](Cc2ccc(O)cc2)NC(=O)[C@H](CC(N)=O)NC(=O)[C@H](Cc2cn(CC(=O)O)c3ccccc23)NC(=O)[C@H](C(C)C)NC(=O)[C@H](Cc2cccc(Cl)c2)N(C)C(=O)[C@H](C(C)C)NC(=O)[C@H](C)NC(=O)CSC[C@@H](C(=O)NCCOCCOCCOCCOCCC(N)=O)NC(=O)[C@H](Cc2ccc(O)cc2)N(C)C(=O)[C@H](Cc2ccccc2)NC(=O)[C@H](CCC(=O)NCCOCCOCCOCCOCCOCCOCCOCCOC)NC(=O)[C@H](CCCNC(=N)N)NC(=O)[C@H]([C@@H](C)CC)NC1=O` [compound 70] was tested. Which Kd [1] did it give?
Its Kd is 1 to 100 nM.

Which Kd [1] does the source give for `CC[C@H](C)[C@@H]1NC(=O)[C@H](Cc2ccc(OC)cc2)NC(=O)[C@H](Cc2ccc(O)cc2)NC(=O)[C@H](CC(N)=O)NC(=O)[C@H](Cc2c[nH]c3ccccc23)NC(=O)[C@H](C(C)C)NC(=O)[C@H](Cc2cccc(Cl)c2)N(C)C(=O)[C@H](C(C)C)NC(=O)[C@H](C)NC(=O)CSC[C@@H](C(=O)NCCOCCOCCOCCOCCC(N)=O)NC(=O)[C@H](Cc2ccc(O)cc2)N(C)C(=O)[C@H](Cc2ccncc2)NC(=O)[C@H](CCCNC(=N)N)NC(=O)[C@H](CCCNC(=N)N)NC(=O)[C@H]([C@@H](C)CC)NC1=O` [compound 59] here?
Its Kd is under 1 nM.

How did the Kd [1] turn out when `CC[C@H](C)[C@@H]1NC(=O)[C@H](Cc2cccnc2)NC(=O)[C@H](Cc2ccc(O)cc2)NC(=O)[C@H](CC(N)=O)NC(=O)[C@H](Cc2c[nH]c3ccccc23)NC(=O)[C@H](C(C)C)NC(=O)[C@H](Cc2cccc(Cl)c2)N(C)C(=O)[C@H](C(C)C)NC(=O)[C@H](C)NC(=O)CSC[C@@H](C(=O)NCCOCCOCCOCCOCCC(N)=O)NC(=O)[C@H](Cc2ccc(O)cc2)N(C)C(=O)[C@H](Cc2ccncc2)NC(=O)[C@H](CCCNC(=N)N)NC(=O)[C@H](CCCNC(=N)N)NC(=O)[C@H]([C@@H](C)CC)NC1=O` [compound 51] ({CH2CO}-AV[NMePhe(3-Cl)]VWNY[3Pal]IIRR[4Pal][NMeY]C[PEG4]-NH2; thioether N-15) was run?
Its Kd is 1 to 100 nM.

For `CC[C@H](C)[C@@H]1NC(=O)[C@H](Cc2ccc(OC)cc2)NC(=O)[C@H](Cc2ccc(O)cc2)NC(=O)[C@H](CC(N)=O)NC(=O)[C@H](Cc2c[nH]c3ccc(Cl)cc23)NC(=O)[C@H](C(C)C)NC(=O)[C@H](Cc2ccccc2)N(C)C(=O)[C@H](C(C)C)NC(=O)[C@H](C)NC(=O)CSC[C@@H](C(=O)NCCOCCOCCOCCOCCC(N)=O)NC(=O)[C@H](Cc2ccc(O)cc2)N(C)C(=O)[C@H](Cc2ccccc2)NC(=O)[C@@H](CCCNC(=N)N)NC(=O)[C@H](CCCNC(=N)N)NC(=O)[C@H]([C@@H](C)CC)NC1=O` [compound 21], which Kd [1] is on record?
The Kd was 1 to 100 nM.

With `CC[C@H](C)[C@@H]1NC(=O)[C@H](Cc2ccc(OC)cc2)NC(=O)[C@H](Cc2ccc(O)cc2)NC(=O)[C@H](CC(N)=O)NC(=O)[C@H](Cc2c[nH]c3ccc(Cl)cc23)NC(=O)[C@H](C(C)C)NC(=O)[C@H](Cc2ccccc2)N(C)C(=O)[C@H](C(C)C)NC(=O)[C@H](C)NC(=O)CSC[C@@H](C(=O)NCC(=O)N[C@@H](CCCCN=[N+]=[N-])C(N)=O)NC(=O)[C@H](Cc2ccc(O)cc2)N(C)C(=O)[C@H](Cc2ccccc2)NC(=O)[C@@H](CCCNC(=N)N)NC(=O)[C@H](CCCNC(=N)N)NC(=O)[C@H]([C@@H](C)CC)NC1=O` [894_3155] as the compound, how does the Kd (KD class for binding to hTfR by SPR, peptide with the linker shown in the same line, 'low signal indicates no activity', read-out: SPR) read?
The Kd was 1 to 100 nM.

“894_3184 ({CH2CO}-AV[NMePhe(3-Cl)]V[Trp(1-CH2CO)]NY[F4aao]II[E(PEG8Me)][E(PEG8Me)][Phe(3-COOH)][NMeY]CG[Lys(N3)]-NH2; thioether N-15; SMILES CC[C@H](C)[C@@H]1NC(=O)[C@H](Cc2ccc(OCC(=O)O)cc2)NC(=O)[C@H](Cc2ccc(O)cc2)NC(=O)[C@H](CC(N)=O)NC(=O)[C@H](Cc2cn(CC(=O)O)c3ccccc23)NC(=O)[C@H](C(C)C)NC(=O)[C@H](Cc2cccc(Cl)c2)N(C)C(=O)[C@H](C(C)C)NC(=O)[C@H](C)NC(=O)CSC[C@@H](C(=O)NCC(=O)N[C@@H](CCCCN=[N+]=[N-])C(N)=O)NC(=O)[C@H](Cc2ccc(O)cc2)N(C)C(=O)[C@H](Cc2cccc(C(=O)O)c2)NC(=O)[C@H](CCC(=O)NCCOCCOCCOCCOCCOCCOCCOCCOC)NC(=O)[C@H](CCC(=O)NCCOCCOCCOCCOCCOCCOCCOCCOC)NC(=O)[C@H]([C@@H](C)CC)NC1=O)” was tested. Which SPR (KD class for binding to hTfR by SPR, peptide with the linker shown in the same line, 'low signal indicates no activity') did it give?
Its SPR is “Low signal”.

Which Kd [1] does the source give for `CC[C@H](C)[C@@H]1NC(=O)[C@H](Cc2ccc(OCC(=O)O)cc2)NC(=O)[C@H](Cc2ccc(N)nc2)NC(=O)[C@H](CC(N)=O)NC(=O)[C@H](Cc2cn(CC(=O)O)c3ccccc23)NC(=O)[C@H](C(C)C)NC(=O)[C@H](Cc2cccc(Cl)c2)N(C)C(=O)[C@H](C(C)C)NC(=O)[C@H](C)NC(=O)CSC[C@@H](C(=O)NCCOCCOCCOCCOCCC(N)=O)NC(=O)[C@H](Cc2ccc(O)cc2)N(C)C(=O)[C@H](Cc2ccncc2)NC(=O)[C@H](CCC(=O)NCCOCCOCCOCCOCCOCCOCCOCCOC)NC(=O)[C@H](CCCNC(=N)N)NC(=O)[C@H]([C@@H](C)CC)NC1=O` [compound 88] ({CH2CO}-AV[NMePhe(3-Cl)]V[Trp(1-CH2COOH)]N[3Pal(6-NH2)]Y(Carboxymethyl)IIRE(NH(CH2CH2O)8Me)[4Pal][NMeY]C[PEG4]-NH2; thioether N-15) here?
Its Kd is 100 to 1000 nM.
